In assay [1] the test system is integrin α4β1. The assay can be described thus: Integrin α4β1-mediated cell adhesion assay (Jurkat cells on VCAM). The class given is cell-based. As for the experimental part:
VCAM was formulated into a final concentration of 0.5 µg/ml with a coating buffer, 50 µl of the solution was transferred to a 96-well plate, and the plate was coated with same at 4°C overnight. The plate was washed with coating buffer three times, then 150 µl of a blocking solution (coating buffer containing 1% BSA) was added, and the plate was blocked at 37°C for 1 h. Jurkat cells were collected, washed twice using DPBS buffer, and then resuspended to 4 × 10^6 cells/ml with an action buffer. 50 µl of the cell suspension was transferred to a 96-well plate so that the cell density reached 2 × 10^5 cells/well. Then 1 µl of the test compound at different concentration or DMSO was added and the plate was incubated at 37°C for 1 h. The plate was washed with coating buffer to remove non-adherent cells. 50 µl of a substrate (4-nitrophenyl-N-acetyl-β-D-glucosaminide) was added and the plate was incubated at 37°C for 2 h. Finally, 90 µl of a termination solution (50 mM glycine and 5 mM EDTA, pH 10.4) was added. The OD value of the plate was read at 405 nm. • Coating buffer: DMEM+ 20 mM HEPES+ 0.4 mM MnCl2 • Action buffer: DMEM+ 20 mM HEPES+ 0.1% BSA+0.4 mM MnCl2 • DMEM: dulbecco's modified eagle medium; • HEPES: 2-[4-(2-hydroxyethyl)piperazin-1-yl]ethanesulfonic acid Table 1 Results of effects of compounds on α4β7- and α4β1-mediated cell adhesion

The target of assay [2] is T1, integrin α4β7 (Homo sapiens, UniProt P13612+P26010).
T1 sequence (P13612 34-1032): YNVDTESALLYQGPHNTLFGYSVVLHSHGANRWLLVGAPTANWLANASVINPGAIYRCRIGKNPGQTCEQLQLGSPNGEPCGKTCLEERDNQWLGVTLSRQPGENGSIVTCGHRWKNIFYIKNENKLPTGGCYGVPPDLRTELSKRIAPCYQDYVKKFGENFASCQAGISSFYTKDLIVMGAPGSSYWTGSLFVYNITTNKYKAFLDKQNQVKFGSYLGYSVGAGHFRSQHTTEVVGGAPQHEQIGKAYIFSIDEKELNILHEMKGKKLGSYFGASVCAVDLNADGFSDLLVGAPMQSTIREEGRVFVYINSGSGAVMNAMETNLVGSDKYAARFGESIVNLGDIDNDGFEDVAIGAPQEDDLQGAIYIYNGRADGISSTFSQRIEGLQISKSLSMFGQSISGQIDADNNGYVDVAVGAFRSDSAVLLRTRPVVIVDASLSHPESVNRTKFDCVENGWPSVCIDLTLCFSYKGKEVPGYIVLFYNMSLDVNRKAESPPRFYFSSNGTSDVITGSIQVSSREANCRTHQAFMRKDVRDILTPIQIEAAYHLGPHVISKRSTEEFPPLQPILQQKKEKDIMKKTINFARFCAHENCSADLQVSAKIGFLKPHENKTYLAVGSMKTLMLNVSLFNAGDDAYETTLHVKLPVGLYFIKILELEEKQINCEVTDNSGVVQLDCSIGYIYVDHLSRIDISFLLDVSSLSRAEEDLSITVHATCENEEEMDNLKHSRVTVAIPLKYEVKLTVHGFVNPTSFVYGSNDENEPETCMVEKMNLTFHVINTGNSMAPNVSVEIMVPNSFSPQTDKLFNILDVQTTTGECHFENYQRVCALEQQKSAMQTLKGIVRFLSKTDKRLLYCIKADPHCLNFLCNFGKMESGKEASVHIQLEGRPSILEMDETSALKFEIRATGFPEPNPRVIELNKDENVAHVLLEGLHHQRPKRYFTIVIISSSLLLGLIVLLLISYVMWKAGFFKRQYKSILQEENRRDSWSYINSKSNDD
T1 sequence (P26010 20-798): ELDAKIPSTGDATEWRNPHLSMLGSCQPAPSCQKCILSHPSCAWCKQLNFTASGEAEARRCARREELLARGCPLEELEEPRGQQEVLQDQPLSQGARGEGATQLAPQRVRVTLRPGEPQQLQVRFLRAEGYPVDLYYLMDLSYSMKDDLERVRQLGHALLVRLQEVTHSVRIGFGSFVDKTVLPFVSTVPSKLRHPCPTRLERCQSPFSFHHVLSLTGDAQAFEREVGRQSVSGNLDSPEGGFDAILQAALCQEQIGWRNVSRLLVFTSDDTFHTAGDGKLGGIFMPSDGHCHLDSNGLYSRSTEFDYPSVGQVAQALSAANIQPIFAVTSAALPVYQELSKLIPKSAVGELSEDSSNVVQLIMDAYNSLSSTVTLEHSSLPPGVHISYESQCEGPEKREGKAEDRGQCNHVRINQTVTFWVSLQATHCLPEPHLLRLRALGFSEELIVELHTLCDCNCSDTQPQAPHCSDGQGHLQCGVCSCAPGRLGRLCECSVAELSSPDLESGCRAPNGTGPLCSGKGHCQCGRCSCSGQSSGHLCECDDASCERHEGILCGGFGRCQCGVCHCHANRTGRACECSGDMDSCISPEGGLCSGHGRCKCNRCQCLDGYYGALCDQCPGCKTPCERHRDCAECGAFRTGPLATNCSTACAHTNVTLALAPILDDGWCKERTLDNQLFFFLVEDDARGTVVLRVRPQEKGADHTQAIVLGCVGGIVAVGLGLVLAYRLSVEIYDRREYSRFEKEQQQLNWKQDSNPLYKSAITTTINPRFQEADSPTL
Description: Integrin α4β7 cell adhesion assay (RPMI8866 cells on MAdCAM-1). The class given is cell-based. As for the experimental part:
MAdCAM-1 was formulated with TBS buffer to a final concentration of 2 µg/ml, 50 µl of the solution was transferred to a 96-well plate, and the plate was coated with same at 4°C overnight. The plate was washed with TBS buffer three times, then 150 µl of a blocking solution (TBS buffer containing 1% BSA) was added, and the plate was blocked at 37°C for 1 h. […] 50 µl of the cell suspension was transferred to a 96-well plate so that the cell density reached 2×10^5 cells/well. Then 1 µl of the compound at different concentrations or DMSO was added and the plate was incubated at 37°C for 1 h or 2 h. The plate was washed with TBS buffer to remove non-adherent cells. 50 µl of a substrate (4-nitrophenyl-N-acetyl-β-D-glucosaminide) was added and the plate was incubated at 37°C for 2 h. […] The IC50 value was calculated using GraphPad Prism 6 software.

[3] abbreviates: selectivity ratio of Jurkat (α4β1)/VCAM-1 IC50 to RPMI-8866 (α4β7)/MadCAM-1 IC50.
Where [4] appears, read: RPMI8866 cells, MAdCAM-1 coated plate, reported as class symbol, read-out: RPMI-8866 (α4β7)/MadCAM-1 IC50.
Setting [5] is: Jurkat cells, VCAM coated plate; read-out: Jurkat (α4β1)/VCAM-1 IC50.

Counter-ions that a name gives are not always drawn. Like-named read-outs stand apart in the source and are kept apart here. A value given as a limit tells only on which side of the number the result lay.

Turning to `Cc1cc(F)cc(C)c1-c1cc(C(CC(=O)O)NC(=O)C(CC(C)C)n2cc(CCN(C)CC3CC3(F)F)c(C(F)(F)F)cc2=O)cc2c1CCC2` (single isomer, unassigned) [Compound 1-2], the α4β1/α4β7 in assay [1] (setting [3]) is given as above 50. Also, the IC50 in assay [2] (setting [4]) was below 10 nM.

In the case of `C#CC1CN(CCc2cn(C(CC(C)C)C(=O)NC(CC(=O)O)c3cc4c(c(-c5c(C)cc(F)cc5C)c3)CCC4)c(=O)cc2C(F)(F)F)C1` (single isomer, unassigned) [Compound 3-2], in assay [2] (setting [4]), the IC50 is below 10 nM.

Consider `CC#Cc1cc(-c2c(C)cccc2C)c(F)c(C(CC(=O)O)NC(=O)[C@H](CC(C)C)n2cc(CCN3CCC4(CC4)C3)c(C(F)(F)F)cc2=O)c1F` (single isomer, unassigned) [Compound 6-2], for which the IC50 in assay [2] (setting [4]) was below 10 nM.

On to `CC#Cc1cc(-c2c(C)cccc2C)c(F)c(C(CC(=O)O)NC(=O)C(CC(C)C)n2cc(CCN(C)CC3CC3(F)F)c(C(F)(F)F)cc2=O)c1F` (single isomer, unassigned) [Compound 7-2], for which the IC50 is above 500 nM in assay [1] (setting [5]) and below 10 nM in assay [2] (setting [4]). Further, the α4β1/α4β7 in assay [1] (setting [3]) was found to be 182.

As to `Cc1cc(F)cc(C)c1-c1c(F)c(C(CC(=O)O)NC(=O)[C@H](CC(C)C)n2cc(CC3CCN(C4CC4)CC3)c(C(F)(F)F)cc2=O)c(F)c2c1CCC2` (single isomer, unassigned) [Compound 24-2], in assay [2] (setting [4]), the IC50 is below 10 nM.

Take `COc1cc(C)c(-c2c(F)c(C(CC(=O)O)NC(=O)C(CC(C)C)n3cc(CCN(C)C)c(C(F)(F)F)cc3=O)c(F)c3c2CCC3)c(C)c1` (single isomer, unassigned) [Compound 39-2]: the IC50 in assay [1] (read-out: Jurkat (α4β1)/VCAM-1 IC50; Jurkat cells, VCAM coated plate) is above 500 nM; in assay [2], below 10 nM. For the same molecule, in assay [1] (setting [3]), the α4β1/α4β7 is reported as 213.

As to `COc1ccc(C)c(-c2c(F)c(C(CC(=O)O)NC(=O)[C@H](CC(C)C)n3cc(CCN(C)C)c(C(F)(F)F)cc3=O)c(F)c3c2CCC3)c1C` (single isomer, unassigned) [Compound 50-2], in assay [2] (setting [4]), the IC50 is below 10 nM.

For `CC#Cc1cc(-c2c(C)cccc2C)c(F)c(C(CC(=O)O)NC(=O)C(CC(C)C)n2cc(CC3CN(C(C)C)C3)c(C(F)(F)F)cc2=O)c1F` (single isomer, unassigned) [Trifluoroacetate salt of compound 18-2], the IC50 is above 500 nM in assay [1] (setting [5]) and below 10 nM in assay [2] (setting [4]). The α4β1/α4β7 in assay [1] (setting [3]) is recorded as 258.

For `CC#Cc1cc(-c2c(C)cccc2C)c(F)c(C(CC(=O)O)NC(=O)C(CC(C)C)n2cc(CC3CN(CC4CC4)C3)c(C(F)(F)F)cc2=O)c1F` (single isomer, unassigned) [Trifluoroacetate salt of compound 19-2], the IC50 is above 500 nM in assay [1] (setting [5]) and below 10 nM in assay [2] (setting [4]). For the same molecule, the α4β1/α4β7 in assay [1] (setting [3]) turned out to be 323.

Turning to `Cc1cccc(C)c1-c1c(F)c(C(CC(=O)O)NC(=O)C(CC(C)C)n2cc(CCN(C)C)c(C(F)(F)F)cc2=O)c(F)c2c1CCC2` (single isomer, unassigned) [Trifluoroacetate salt of compound 20-2], the IC50 in assay [1] (setting [5]) was above 500 nM; in assay [2] (setting [4]) it was below 10 nM. Moreover, the α4β1/α4β7 in assay [1] (setting [3]) worked out at 648.

For `COc1cc(C)c(-c2c(F)c(C(CC(=O)O)NC(=O)C(CC(C)C)n3cc(CCN(C)C)c(C(F)(F)F)cc3=O)c(F)c3c2CCC3)c(C)c1` (single isomer, unassigned) [Trifluoroacetate salt of compound 21-2], the α4β1/α4β7 in assay [1] (setting [3]) was 1586.

On to `CC#Cc1cc(-c2c(C)cccc2C)c(F)c(C(CC(=O)O)NC(=O)C(CC(C)C)n2cc(CC3CCN(C(C)C)CC3)c(C(F)(F)F)cc2=O)c1F` (single isomer, unassigned) [Trifluoroacetate salt of compound 23-2], for which the IC50 is above 500 nM in assay [1] (setting [5]) and below 10 nM in assay [2] (setting [4]). The α4β1/α4β7 in assay [1] (setting [3]) worked out at 310.

In the case of `CC#Cc1cc(-c2c(C)cccc2C)c(F)c(C(CC(=O)O)NC(=O)C(CC(C)C)n2cc(CCC3CCN(C)C3)c(C(F)(F)F)cc2=O)c1F` (single isomer, unassigned) [Trifluoroacetate salt of compound 27-2], the figures for the IC50 in assay [1] (setting [5]) and in assay [2] (setting [4]) were above 100 nM and below 10 nM, respectively. Moreover, in assay [1] (setting [3]), the α4β1/α4β7 turned out to be 133.

`Cc1cc(F)cc(C)c1-c1c(F)c(C(CC(=O)O)NC(=O)[C@H](CC(C)C)n2cc(CCC3CCCN3C)c(C(F)(F)F)cc2=O)c(F)c2c1CCC2` (single isomer, unassigned) [Trifluoroacetate salt of compound 28-2]: the α4β1/α4β7 in assay [1] (setting [3]) came to 130. Moreover, the IC50 in assay [2] (setting [4]) is below 10 nM.

For `COc1cc(C)c(-c2c(F)c(C(CC(=O)O)NC(=O)C(CC(C)C)n3cc(CCN(C)C)c(C(F)(F)F)cc3=O)c(F)c3c2CCC3)c(C)c1` (stereo not shown) [Compound 21-A], the α4β1/α4β7 in assay [1] (setting [3]) is on record as 119.

As to `Cc1cc(F)cc(C)c1-c1cc(C(CC(=O)O)NC(=O)C(CC(C)C)n2cc(CC3CCN(C(C)C)CC3)c(C(F)(F)F)cc2=O)cc2c1CCC2` (stereo not shown) [Trifluoroacetate salt of compound 22-2], in assay [1] (setting [3]), the α4β1/α4β7 is 307.

In the case of `Cc1cc(F)cc(C)c1-c1c(F)c(C(CC(=O)O)NC(=O)C(CC(C)C)n2cc(CCC3CCN(C)C3)c(C(F)(F)F)cc2=O)c(F)c2c1CCC2` (stereo not shown) [Trifluoroacetate salt of compound 26-2], the α4β1/α4β7 in assay [1] (setting [3]) was found to be 177.

For the molecule `Cc1ccc(F)c(C)c1-c1c(F)c(C(CC(=O)O)NC(=O)[C@H](CC(C)C)n2cc(CCN(C)C)c(C(F)(F)F)cc2=O)c(F)c2c1CCC2` (stereo partly shown) [Trifluoroacetate salt of compound 48-2], in assay [2] (RPMI8866 cells, MAdCAM-1 coated plate, numeric value or bound, read-out: RPMI-8866 (α4β7)/MadCAM-1 IC50), the IC50 is below 1 nM.

(Values after patent EP4585587A1, “PROPIONIC ACID DERIVATIVE AND USE THEREOF IN MEDICINE” (priority 2022, dated 2024).)
